Columns and labels:
[1] = tested on: wild-type C. elegans (N2); experiment: Lifespan analysis of C. elegans after treatment with test substances; format: in vivo; details: acetic acid and vitamins 50 ppm, RF3 and mushroom polysaccharide fractions 100 ppm (FIG. 1); 20° C.; versus water control
Text: Strains, bacteria, natural products and chemicals. The wild-type N2 strain of C. elegans were used in all experiments. The worms were maintained and cultured on nematode growth medium (NGM) agar plates or in liquid medium with E. coli OP50 as a food source. […] Contaminating food and worm debris were removed by sucrose floatation. In addition to OP50, two E. coli strains for RNAi were used (III-1N20 for TIR-1 RNAi and I-5M24 for DAF-16 RNAi). RF3, crude mycelium-powders of A. camphorate and H. erinaceus were prepared as described in previous papers. Each solution was diluted with deionized water to make test solutions of desired concentrations for various assays. Lifespan analysis after treatment with various substances.

[2] = tested on: DAF-16; experiment: Semi-quantitative RT-PCR of DAF-16 transcripts in C. elegans; format: in vivo; details: day 2 after treatment; acetic acid 50 ppm, extracts 100 ppm; normalised to ACT-1
Description: (§1) RNA preparation and reverse transcriptase-PCR(RT-PCR). Total RNA from batches of C. elegans were isolated from samples in the NGM medium at appropriate time intervals using an RNeasy mini kit (Qiagen). Subsequently, RNA (500 ng) from each sample was reverse-transcribed and PCR was performed using a Superscript One-step RT-PCR kit (Invitrogen). […] PCR products were run on 1.8% agarose gel and stained with 0.4 μg/ml ethidium bromide. Stained bands were visualized under UV light and photographed with a camera (Nikon […]).

[3] = tested on: RAB-1 and PMK-1 (MAPK pathway); experiment: RT-PCR of RAB-1 and PMK-1 transcripts (MAPK pathway) in C. elegans; details: in vivo transcription after treatment; RF3 100 ppm, 2 days
Description: as §1

CC(=O)O [Acetic acid, acetic acid]
lifespan-extending effect on C. elegans [1]: showed lifespan-extending effect
DAF-16 expression [2]: significant increase
MAPK pathway activation (RAB-1 and PMK-1 transcription levels) [3]: apparently not involved

Reference: US20090280062A1, “LONGEVITY-PROMOTING EFFECTS OF ACETIC ACID AND REISHI POLYSACCHARIDE” (priority 2008, published 2009)
